# Target: T1, Ubiquitin carboxyl-terminal hydrolase 19 (Homo sapiens, UniProt O94966)
# T1 sequence (O94966 whole entry): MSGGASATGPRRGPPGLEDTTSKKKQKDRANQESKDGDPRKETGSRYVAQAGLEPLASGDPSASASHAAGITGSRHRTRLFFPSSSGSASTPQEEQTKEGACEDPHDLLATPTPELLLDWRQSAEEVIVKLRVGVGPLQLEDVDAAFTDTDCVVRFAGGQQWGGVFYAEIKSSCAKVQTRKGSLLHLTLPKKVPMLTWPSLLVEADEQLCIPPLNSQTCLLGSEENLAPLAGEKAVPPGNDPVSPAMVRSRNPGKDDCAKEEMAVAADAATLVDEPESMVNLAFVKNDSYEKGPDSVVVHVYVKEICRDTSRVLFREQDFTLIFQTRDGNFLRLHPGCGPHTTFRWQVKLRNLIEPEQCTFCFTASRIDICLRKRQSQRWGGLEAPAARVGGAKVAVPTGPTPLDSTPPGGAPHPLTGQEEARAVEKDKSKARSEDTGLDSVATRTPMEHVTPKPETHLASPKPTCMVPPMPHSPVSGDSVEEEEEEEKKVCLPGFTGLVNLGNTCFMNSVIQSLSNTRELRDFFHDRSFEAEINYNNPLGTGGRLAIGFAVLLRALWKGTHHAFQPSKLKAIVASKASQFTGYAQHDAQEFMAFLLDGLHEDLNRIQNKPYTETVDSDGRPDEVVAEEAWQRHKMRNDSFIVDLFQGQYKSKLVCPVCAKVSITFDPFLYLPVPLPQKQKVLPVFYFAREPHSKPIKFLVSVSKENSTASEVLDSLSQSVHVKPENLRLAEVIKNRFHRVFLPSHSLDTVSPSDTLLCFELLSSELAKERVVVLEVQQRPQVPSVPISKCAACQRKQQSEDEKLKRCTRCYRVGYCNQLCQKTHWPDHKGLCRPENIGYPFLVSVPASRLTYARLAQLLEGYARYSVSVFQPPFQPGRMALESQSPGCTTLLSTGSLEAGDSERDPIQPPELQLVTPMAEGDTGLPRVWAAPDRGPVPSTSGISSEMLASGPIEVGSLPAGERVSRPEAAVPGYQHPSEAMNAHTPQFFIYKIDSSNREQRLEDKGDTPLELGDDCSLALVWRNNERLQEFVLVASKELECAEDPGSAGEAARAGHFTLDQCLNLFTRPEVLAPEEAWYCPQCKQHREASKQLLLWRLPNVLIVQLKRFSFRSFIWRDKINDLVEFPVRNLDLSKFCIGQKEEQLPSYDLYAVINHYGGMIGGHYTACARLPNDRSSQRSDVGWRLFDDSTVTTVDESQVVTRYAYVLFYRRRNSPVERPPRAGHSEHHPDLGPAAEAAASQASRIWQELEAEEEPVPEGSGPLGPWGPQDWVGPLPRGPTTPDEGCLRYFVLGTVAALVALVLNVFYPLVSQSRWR
# Assay: Inhibition of C-terminal His6-tagged recombinant human USP19 using iso-peptide ubiquitin-Lys-TAMRA as substrate incubated for 30 mins and measured after 90 mins by fluorescent polarization assay
row,IC50 [nM],SMILES
1,< 500,C[C@H](CC1CCCCC1)C(=O)N1CC[C@@](O)(Cn2cc(C(=O)N3CCN(C)CC3)c(-c3ccccc3)cc2=O)C2(CCCC2)C1
2,< 500,CCOC(=O)c1cn(C[C@]2(O)CCN(C(=O)[C@H](C)CC3CCCCC3)CC23CCCC3)c(=O)cc1-c1ccccc1
3,< 500,C[C@H](CC1CCCCC1)C(=O)N1CC[C@@](O)(Cn2cc(C(=O)N3CCNCC3)c(-c3ccccc3F)cc2=O)C2(CCCC2)C1
4,< 500,C[C@H](CC(F)(F)F)C(=O)N1CC[C@@](O)(Cn2cc(C(=O)N3CCN(C)CC3)c(-c3ccccc3)cc2=O)C2(CCCC2)C1
5,< 500,CC(C)N(C)C(=O)c1cn(CC2(O)CCN(C(=O)[C@H](C)CC3CCCCC3)CC2(C)C)c(=O)cc1-c1ccccc1 (stereo not given in full)
6,< 500,C[C@H](CC1CCCCC1)C(=O)N1CC[C@@](O)(Cn2cc(C(=O)N3CCC(O)CC3)c(-c3ccccc3)cc2=O)C(C)(C)C1
7,< 500,CN(C)C(=O)c1cn(C[C@]2(O)CCN(C(=O)[C@H](CCO)CC3CCCCC3)CC2(C)C)c(=O)cc1-c1ccccc1
8,< 500,C[C@H](CC1CC1)C(=O)N1CCC(O)(Cn2cc(C(=O)N(C)C)c(-c3ccccc3)cc2=O)C2(CCCC2)C1 (stereo not given in full)
9,< 500,C[C@H](CC1CCCCC1)C(=O)N1CC[C@@](O)(Cn2cc(C(=O)N(C)C)c(-c3ccccc3)cc2=O)C(C)(C)C1
10,< 500,C[C@H](CC1CCCCC1)C(=O)N1CC[C@@](O)(Cn2cc(C(=O)N3CCNC[C@H]3CO)c(-c3ccccc3)cc2=O)C(C)(C)C1
11,< 500,C[C@H](CC1CCCCC1)C(=O)N1CC[C@@](O)(Cn2cc(C(=O)N3CCNCC3)c(-c3ccccc3)cc2=O)C(C)(C)C1
12,< 500,CN(C)C(=O)c1cn(CC2(O)CCN(C(=O)C(O)CC3CCCCC3)CC23CCCC3)c(=O)cc1-c1ccccc1 (stereo not given)
13,< 500,C[C@H](CC1CCCCC1)C(=O)N1CCC(O)(Cn2cc(C(=O)N3CCOCC3)c(-c3ccccc3)cc2=O)C(C)(C)C1 (stereo not given in full)
14,< 500,CC(C)N(C)C(=O)c1cn(C[C@]2(O)CCN(C(=O)[C@H](C)CC3CCCCC3)CC2(C)C)c(=O)cc1-c1ccccc1
15,< 500,C[C@H](CC1CCC1)C(=O)N1CC[C@@](O)(Cn2cc(C(=O)N(C)C)c(-c3ccccc3)cc2=O)C2(CCCC2)C1
16,< 500,C[C@H](CC1CCCCC1)C(=O)N1CC[C@@](O)(Cn2cc(C(=O)N3CCNCC3)c(-c3ccccc3F)cc2=O)C(C)(C)C1
17,< 500,C[C@@H]1CN(C(=O)c2cn(C[C@]3(O)CCN(C(=O)[C@H](C)CC4CCCCC4)CC3(C)C)c(=O)cc2-c2ccccc2)CCN1
18,< 500,COC[C@H](CC1CCCCC1)C(=O)N1CC[C@@](O)(Cn2cc(C(=O)N(C)C)c(-c3ccccc3)cc2=O)C(C)(C)C1
19,< 500,C[C@H](CC1CCCCC1)C(=O)N1CCC(O)(Cn2cc(C(=O)N3CCN(C)CC3)c(-c3ccccc3)cc2=O)C(C)(C)C1 (stereo not given in full)
20,< 500,C[C@H](CC1CCCCC1)C(=O)N1CC[C@@](O)(Cn2cc(C(=O)N3CCCC3)c(-c3ccccc3)cc2=O)C(C)(C)C1
21,< 500,C[C@H](CC1CCCCC1)C(=O)N1CCC(O)(Cn2cnc(-c3ccccc3)cc2=O)C(C)(C)C1 (stereo not given in full)
22,< 500,C[C@H](CC1CCCCC1)C(=O)N1CCC(O)(Cn2cnc(-c3ccccc3CN)cc2=O)C(C)(C)C1 (stereo not given in full)
23,< 500,C[C@H](CC1CCC1)C(=O)N1CC[C@@](O)(Cn2cc(C(=O)N3CCNCC3)c(-c3ccccc3F)cc2=O)C2(CCCC2)C1
24,< 500,CC(=O)N1CCN(C(=O)c2cn(CC3(O)CCN(C(=O)[C@H](C)CC4CCCCC4)CC3(C)C)c(=O)cc2-c2ccccc2)CC1 (stereo not given in full)
25,< 500,C[C@H](CC1CCC1)C(=O)N1CC[C@@](O)(Cn2cc(C(=O)N3CCNCC3)c(-c3ccccc3)cc2=O)C2(CCCC2)C1
26,< 500,C[C@H](CC1CCCCC1)C(=O)N1CC[C@@](O)(Cn2cc(C(=O)N(C)C)c(-c3ccccc3F)cc2=O)C(C)(C)C1
27,< 500,C[C@H](CC1CCCCC1)C(=O)N1CCC(O)(Cn2cc(C(=O)N(C)C)c(-c3ccccc3)cc2=O)C2(CCCCC2)C1 (stereo not given in full)

# Further lines, the compound ahead of its results:
row,SMILES,IC50 [nM]
1,O=C(C(F)CC1CCCCC1)N1CCC(O)(Cn2cnc(-c3ccccc3F)cc2=O)CC1 (racemic),≥ 50000
2,C[C@H](CC(F)(F)F)C(=O)N1CC[C@@](O)(Cn2cc(C(=O)N(C)C)c(-c3ccccc3)cc2=O)C2(CCCC2)C1,< 500
3,C[C@H](CC(F)(F)F)C(=O)N1CC[C@@](O)(Cn2cnc(-c3cccc(F)c3)cc2=O)C2(CCCC2)C1,< 500
4,C[C@H](CC1CCCCC1)C(=O)N1CC[C@@](O)(Cn2cc(C(=O)N(C)C)c(C3CC3)cc2=O)C2(CCCC2)C1,< 500
5,O=C(CCC1CCC1)N1CCC(O)(Cn2cnc(-c3ccccc3F)cc2=O)CC1,≥ 50000
6,C[C@H](CC1CCCCC1)C(=O)N1CCC(O)(Cn2cnc(-c3ccsc3)cc2=O)C(C)(C)C1 (stereo not given in full),< 500
7,O=C(c1cn(C[C@]2(O)CCN(C(=O)[C@H](CO)CC(F)(F)F)CC23CCCC3)c(=O)cc1-c1ccccc1)N1CCNCC1,< 500
8,O=C(C1CNCC1c1ccccc1)N1CC[C@@](O)(Cn2cnc(-c3ccccc3)cc2=O)C2(CCCC2)C1 (stereo not given in full),< 500
9,CN(C)C(=O)c1cn(C[C@]2(O)CCN(C(=O)[C@H](CO)CC(F)(F)F)CC23CCCC3)c(=O)cc1-c1ccccc1,< 500
10,C[C@H](CC1CCCCC1)C(=O)N1CCC(O)(Cn2cc(C(=O)N(C)C)c(-c3cccc(CO)c3)cc2=O)C2(CCCC2)C1 (stereo not given in full),< 500
11,C[C@H](CC(F)(F)F)C(=O)N1CC[C@@](O)(Cn2cnc(-c3ccccc3)cc2=O)C2(CCCC2)C1,< 500
12,C[C@H](CC1CCCCC1)C(=O)N1CCC(O)(Cn2cc(C(=O)N(C)C)c(Cl)cc2=O)C2(CCCC2)C1 (stereo not given in full),< 500
13,C[C@H](CC1CCCCC1)C(=O)N1CCC(O)(Cn2cnc(-c3cccc(CO)c3)cc2=O)C(C)(C)C1 (stereo not given in full),< 500
14,O=C([C@@H]1CCNC[C@H]1c1ccccc1)N1CCC(O)(Cn2cnc(-c3ccccc3)cc2=O)C2(CCCC2)C1 (stereo not given in full),< 500
15,CN(C)C(=O)c1cn(CC2(O)CCN(C(=O)[C@@H]3C[C@@H]3c3ccccc3)CC23CCCC3)c(=O)cc1-c1ccccc1 (stereo not given in full),< 500
16,O=C(CCc1ccccc1)N1CCC(O)(Cn2cnc(-c3ccccc3F)cc2=O)CC1,≥ 50000
17,CN(C)C(=O)c1cn(CC2(O)CCN(C(=O)c3c[nH]nc3-c3ccccc3)CC23CCCC3)c(=O)cc1-c1ccccc1 (stereo not given),≤ 5000

row,SMILES,IC50 [nM]
1,CC(n1cnc(-c2ccccc2)cc1=O)C1(O)CCN(C(=O)[C@H](C)CC2CCCCC2)CC1 (stereo not given in full),≤ 5000
2,C[C@H](CC(F)(F)F)C(=O)N1CC[C@@](O)(Cn2cnc(-c3ccccc3F)cc2=O)C2(CCCC2)C1,< 500
3,C[C@H](CC1CCCCC1)C(=O)N1CC[C@@](O)(Cn2cc(C(=O)N3CCNCC3)c(C3CC3)cc2=O)C2(CCCC2)C1,< 500
4,C[C@H](CC1CCC1)C(=O)N1CC[C@@](O)(Cn2cc(C(=O)N(C)C)c(-c3ccccc3F)cc2=O)C2(CCCC2)C1,< 500
5,C[C@H](CC1CCCCC1)C(=O)N1CCC(O)(Cn2cc(C(=O)N(C)C)c(-c3ccc(CO)cc3)cc2=O)C2(CCCC2)C1 (stereo not given in full),< 500
6,C[C@H](CC1CCCCC1)C(=O)N1CCC(O)(Cn2cnc(-c3ccccc3F)cc2=O)C2(CCCC2)C1 (stereo not given in full),< 500
7,C[C@H](CC(F)(F)F)C(=O)N1CC[C@@](O)(Cn2cc(C(=O)N3CCNCC3)c(-c3ccccc3)cc2=O)C2(CCCC2)C1,< 500
8,C[C@H](CC(C)(F)F)C(=O)N1CC[C@@](O)(Cn2cnc(-c3ccccc3)cc2=O)C2(CCCC2)C1,< 500
9,CC(OC1CCCCC1)C(=O)N1CCC(O)(Cn2cnc(-c3ccccc3F)cc2=O)C(C)(C)C1 (stereo not given),≥ 50000
10,CC(C)CC(C)C(=O)N1CCC(O)(Cn2cc(C(=O)N(C)C)c(-c3ccccc3)cc2=O)C2(CCCC2)C1 (stereo not given),< 500
11,CC(CN1CCCCC1)C(=O)N1CCC(O)(Cn2cc(C(=O)N(C)C)c(-c3ccccc3)cc2=O)C2(CCCC2)C1 (stereo not given),≥ 5000
12,C[C@H](CC1CCCCC1)C(=O)N1CCC(O)(Cn2cc(C(=O)N(C)C)c(-c3ccsc3)cc2=O)C2(CCCC2)C1 (stereo not given in full),< 500
13,O=C(CCC1CCCC1)N1CCC(O)(Cn2cnc(-c3ccccc3F)cc2=O)CC1,≥ 50000
14,C[C@H](CC1CCCCC1)C(=O)N1CCC(O)(Cn2cnc(-c3ccc(CO)cc3)cc2=O)C(C)(C)C1 (stereo not given in full),< 500
15,O=C(c1cn(C[C@]2(O)CCN(C(=O)[C@H](CO)CC(F)(F)F)CC23CCCC3)c(=O)cc1-c1ccccc1)N1CCOCC1,< 500
16,C[C@H](CC(F)(F)F)C(=O)N1CC[C@@](O)(Cn2cc(C(=O)N3CCOCC3)c(-c3ccccc3)cc2=O)C2(CCCC2)C1,< 500

# From ChEMBL document CHEMBL5052841, “Usp19 inhibitors for use in therapy” (2020)
